Experimental data from the NIST ThermoML archive (doi:10.1021/je101232g).

Conditions: Liquid

CCCCCCCCCCCCCC[P+](CCCCCC)(CCCCCC)CCCCCC.O=S(=O)([N-]S(=O)(=O)C(F)(F)F)C(F)(F)F
mass density [kg/m3]
Conditions | 283.15 K | 293.15 K | 303.15 K | 313.15 K | 323.15 K | 333.15 K
100 kPa | 1077.4 | 1070 | 1062.7 | 1055.4 | 1048 | 1040.8
1000 kPa | 1077.9 | 1070.5 | 1063.3 | 1056 | 1048.7 | 1041.5
2000 kPa | 1078.4 | 1071.2 | 1063.9 | 1056.7 | 1049.3 | 1042.2
3000 kPa | 1079 | 1071.8 | 1064.5 | 1057.3 | 1050.1 | 1042.9
4000 kPa | 1079.6 | 1072.3 | 1065.2 | 1057.9 | 1050.7 | 1043.6
5000 kPa | 1080.2 | 1072.9 | 1065.8 | 1058.6 | 1051.4 | 1044.4
10000 kPa | 1083 | 1075.9 | 1068.8 | 1061.7 | 1054.7 | 1047.8
15000 kPa | 1085.6 | 1078.6 | 1071.8 | 1064.9 | 1057.9 | 1051.2
20000 kPa | 1088.3 | 1081.4 | 1074.7 | 1067.8 | 1061 | 1054.3
25000 kPa | 1090.8 | 1084 | 1077.4 | 1070.7 | 1064 | 1057.4
30000 kPa | 1093.3 | 1086.6 | 1080.1 | 1073.5 | 1066.9 | 1060.4
35000 kPa | 1095.6 | 1089.1 | 1082.7 | 1076.2 | 1069.8 | 1063.3
40000 kPa | 1097.9 | 1091.5 | 1085.1 | 1078.8 | 1072.4 | 1066.2
45000 kPa | 1100.2 | 1093.9 | 1087.7 | 1081.3 | 1075.1 | 1068.9

CCCCCCCCCCCCCC[P+](CCCCCC)(CCCCCC)CCCCCC.N#C[N-]C#N [tetradecyl(trihexyl)phosphonium dicyanamide]
mass density [kg/m3]
Conditions | 283.15 K | 293.15 K | 303.15 K | 313.15 K | 323.15 K | 333.15 K
100 kPa | 907.5 | 901.7 | 895.9 | 890.2 | 884.3 | 878.6
1000 kPa | 908 | 902.1 | 896.4 | 890.6 | 884.8 | 879.2
2000 kPa | 908.4 | 902.6 | 896.9 | 891.2 | 885.4 | 879.7
3000 kPa | 908.9 | 903.1 | 897.4 | 891.6 | 885.9 | 880.2
4000 kPa | 909.3 | 903.5 | 897.9 | 892.1 | 886.5 | 880.8
5000 kPa | 909.8 | 904 | 898.3 | 892.7 | 887 | 881.3
10000 kPa | 912.1 | 906.3 | 900.7 | 895.1 | 889.5 | 884
15000 kPa | 914.3 | 908.5 | 903 | 897.5 | 892 | 886.6
20000 kPa | 916.2 | 910.7 | 905.3 | 899.9 | 894.4 | 889.1
25000 kPa | 918.3 | 912.8 | 907.5 | 902.1 | 896.7 | 891.4
30000 kPa | 920.3 | 914.9 | 909.6 | 904.3 | 899 | 893.9
35000 kPa | 922.2 | 916.9 | 911.6 | 906.5 | 901.4 | 896.2
40000 kPa | 924.2 | 918.9 | 913.7 | 908.5 | 903.4 | 898.3
45000 kPa | 926.1 | 920.9 | 915.7 | 910.7 | 905.6 | 900.5

CCCCCCCCCCCCCC[P+](CCCCCC)(CCCCCC)CCCCCC.[Br-] [tetradecyltrihexylphosphonium bromide]
mass density [kg/m3]
Conditions | 283.15 K | 293.15 K | 303.15 K | 313.15 K | 323.15 K | 333.15 K
100 kPa | 962.7 | 956.5 | 950.3 | 944.1 | 937.8 | 931.7
1000 kPa | 963.2 | 957.1 | 950.9 | 944.6 | 938.4 | 932.3
2000 kPa | 963.7 | 957.6 | 951.4 | 945.3 | 939 | 933
3000 kPa | 964.2 | 958.1 | 952 | 945.8 | 939.7 | 933.6
4000 kPa | 964.8 | 958.7 | 952.6 | 946.4 | 940.3 | 934.2
5000 kPa | 965.3 | 959.2 | 953.1 | 947 | 941 | 934.9
10000 kPa | 967.9 | 961.9 | 955.9 | 949.8 | 943.9 | 938
15000 kPa | 970.3 | 964.5 | 958.6 | 952.7 | 946.8 | 941
20000 kPa | 972.8 | 967 | 961.2 | 955.4 | 949.7 | 943.9
25000 kPa | 975.3 | 969.3 | 963.8 | 958 | 952.4 | 946.8
30000 kPa | 977.6 | 971.8 | 966.3 | 960.6 | 955.1 | 949.6
35000 kPa | 979.8 | 974.2 | 968.7 | 963.2 | 957.7 | 952.3
40000 kPa | 982 | 976.5 | 971 | 965.5 | 960.2 | 954.9
45000 kPa | 984.2 | 978.8 | 973.4 | 967.9 | 962.7 | 957.3

CCCCCCCCCCCCCC[P+](CCCCCC)(CCCCCC)CCCCCC.[Cl-] [trihexyl(tetradecyl)phosphonium chloride]
mass density [kg/m3]
Conditions | 283.15 K | 293.15 K | 303.15 K | 313.15 K | 323.15 K | 333.15 K
100 kPa | 898.4 | 892.4 | 886.5 | 880.6 | 874.8 | 868.9
1000 kPa | 898.8 | 892.9 | 887 | 881.1 | 875.3 | 869.4
2000 kPa | 899.3 | 893.4 | 887.5 | 881.7 | 875.8 | 870
3000 kPa | 899.8 | 893.9 | 888 | 882.2 | 876.4 | 870.6
4000 kPa | 900.3 | 894.4 | 888.5 | 882.7 | 876.9 | 871.1
5000 kPa | 900.7 | 894.9 | 889.1 | 883.3 | 877.6 | 871.8
10000 kPa | 903.1 | 897.3 | 891.5 | 885.9 | 880.2 | 874.5
15000 kPa | 905.3 | 899.6 | 894 | 888.4 | 882.8 | 877.3
20000 kPa | 907.5 | 901.8 | 896.3 | 890.8 | 885.3 | 879.9
25000 kPa | 909.6 | 904 | 898.6 | 893.2 | 887.8 | 882.5
30000 kPa | 911.7 | 906.3 | 900.8 | 895.5 | 890.1 | 884.9
35000 kPa | 913.7 | 908.3 | 903 | 897.7 | 892.6 | 887.3
40000 kPa | 915.7 | 910.3 | 905.1 | 899.9 | 894.8 | 889.6
45000 kPa | 917.6 | 912.4 | 907.2 | 902.1 | 897 | 892

CCCCCCCCCCCCCC[P+](CCCCCC)(CCCCCC)CCCCCC.CS(=O)(=O)[O-] [trihexyltetradecylphosphonium methanesulfonate]
mass density [kg/m3]
Conditions | 283.15 K | 293.15 K | 303.15 K | 313.15 K | 323.15 K | 333.15 K
100 kPa | 938 | 931.8 | 925.7 | 919.6 | 913.4 | 907.4
1000 kPa | 938.4 | 932.3 | 926.2 | 920.1 | 914 | 908.1
2000 kPa | 938.9 | 932.8 | 926.7 | 920.7 | 914.6 | 908.7
3000 kPa | 939.5 | 933.4 | 927.3 | 921.3 | 915.3 | 909.3
4000 kPa | 940.1 | 933.9 | 927.9 | 921.9 | 915.9 | 910
5000 kPa | 940.5 | 934.4 | 928.4 | 922.5 | 916.6 | 910.6
10000 kPa | 943.1 | 937.1 | 931.3 | 925.3 | 919.5 | 913.7
15000 kPa | 945.6 | 939.7 | 934 | 928.1 | 922.3 | 916.7
20000 kPa | 948 | 942.2 | 936.6 | 930.8 | 925.2 | 919.6
25000 kPa | 950.3 | 944.6 | 939 | 933.5 | 927.9 | 922.3
30000 kPa | 952.7 | 947.1 | 941.5 | 935.9 | 930.5 | 925
35000 kPa | 954.9 | 949.4 | 943.8 | 938.4 | 933.1 | 927.7
40000 kPa | 957.1 | 951.6 | 946.2 | 940.8 | 935.5 | 930.2
45000 kPa | 959.3 | 953.9 | 948.5 | 943.3 | 938.1 | 932.7
